Series [1] in a line: Kinetics of decomposition (EPR) of superoxide trapping adducts (nitrone-OOH) in phosphate buffer medium. Conditions: for Half-life time: decay of nitrone-OOH adduct, 0.1M phosphate buffer pH=5.8; for order of kinetics of disappearance of the adducts: phosphate buffer pH=5.8; for adduct degradation, times less quickly than the POBN--OOH adducts: phosphate buffer, relative to POBN--OOH. From the text: The adducts from trapping with the superoxide radical were produced using the riboflavin-DTPA (diethylenetriaminepentaacetic acid) system.
This system contains 1M of DTPA, […] of riboflavin and 0.1M of nitrone in a 0.1M phosphate buffer at pH=5.8.
This mixture is transferred into the cell of a Varian E-9 spectrometer. The cell is then irradiated to generate the superoxide radical in situ. At the end of irradiation the decrease in the adducts (nitrone-OOH) is studied using EPR analysis.

Series [2] is described as follows: EPR spin trapping of HO^. radicals (Fenton's method). Conditions: phosphate buffer pH=7. The procedure: In this experiment the HO^. radicals were produced by Fenton's method in a 1.1M phosphate buffer at pH=7 in the presence of the […] system. This classical reaction for producing HO^. radicals can be expressed more simply as follows:
H2 O2 +Fe(II)→HO^. +HO-+Fe(III).
The EPR spectrum of the adduct from trapping is recorded approximately 40 s after addition of the ferrous sulphate.
(§1) The stability of these adducts makes it possible to measure the respective coupling constants of the unpaired electron with the nuclei of nitrogen (AN), of hydrogen β to the nitrogen atom (AH) and of phosphorus (AP). These values have been shown together in Table 3 which follows: […]

Series [3] is described as follows: EPR spin trapping of O2^.-/HOO^. radicals (hypoxanthine/xanthine oxidase system). Conditions: for EPR detection of trapping adduct: HOO^. radicals, hypoxanthine/xanthine oxidase, 0.1M phosphate buffer. As to the method: For the production of the HOO^. radicals the hypoxanthine/xanthine oxidase system is employed in a 0.1M phosphate buffer maintained at ambient temperature. The oxygen resulting in the formation of the HOO^. radicals is that initially dissolved in the 0.1M phosphate buffer.
The hypoxanthine/xanthine oxidase system contains 0.1M of a phosphate buffer, […] of hypoxanthine, 1 mM of diethylenetriaminepentaacetic acid (DTPA), 0.4 units cm^-3 of xanthine oxidase (marketed by the company Boehringer Mannheim Biochemica Co.), and 0.1M of the nitrone being tested. The EPR spectra of the adducts from trapping are recorded approximately 40 s after the addition of xanthine oxidase.
as §1

Another series in a line: physchem. Conditions: for lipophilic/hydrophilic character: from partition coefficients, n-octanol/phosphate buffer; for logD at 1 h: n-octanol/10 mm phosphate buffer, pH 7.4. As to the method: Biol. Med. 14 (1993) 127. The partition coefficients are defined simply as the ratio of the nitrone concentration in the lipophilic phase (n-octanol) to the nitrone concentration in the aqueous phase.
Identical volumes (2 cm^3) of the octanolic nitrone solution prepared above and of a 10 mM phosphate buffer of pH=7.4 are agitated vigorously at 37° C. for 1 hour and the two phases are then separated by centrifuging (1000 g for 20 s) . The respective nitrone concentrations in each phase are then measured.

For series [4] the following is noted: for adduct degradation, times more slowly than the POBN--OOH and PBN--OOH adducts: organic medium (DMF, pyridine), relative to POBN--OOH and PBN--OOH. The source says:
The adducts from trapping with the superoxide radical were produced using the lumiflavin-DTPA system in pyridine, or dimethylformamide. This contains […] of DTPA, […] of lumiflavin and 0.1M of nitrone in pyridine or dimethylformamide.
The operating procedure followed for the study of the decrease of the adduct from trapping is the same as above.

For series [5] the following is noted: cerebral ischaemia-reperfusion or cerebral aging; cited from earlier work.

The source of these data is US5849771A, “Phosphorylated nitrone derivatives, method for preparing same, and compositions containing said derivatives” (Centre National de la Recherche Scientifique (C.N.R.S.), priority 1995, dated 1998).

Where two headings read alike, the source gives them in different places.

On to `CCOP(=O)(OCC)C(C)(C)[N+]([O-])=Cc1ccccc1` [Example 1, Diethyl 1-(N-benzylidene-N-oxy)amino-1-methylethyl-phosphonate], for which, in series [1], the Half-life time amounted to 5.12 min; the “order of kinetics of disappearance of the adducts” value (“order” for short) is recorded as “first order”; the “adduct degradation, times less quickly than the POBN--OOH adducts” value is “approximately 20 times”. For the same molecule, the “EPR detection of trapping adduct” value in series [2] is “formation of the adducts”. The “EPR detection of trapping adduct” value in series [3] is given as “formation of the adducts”.
In the case of `CCOP(=O)(OCC)C(C)(C)[N+]([O-])=Cc1cc[n+]([O-])cc1` [Example 2, Diethyl 1-[N-oxy-N-[4-(N'-oxypyridyl)formylene]amino]-1-methylethylphosphonate], in series [1], the Half-life time was 7.08 min; the “order” value is reported as “first order”; the “adduct degradation, times less quickly than the POBN--OOH adducts” value is reported as “approximately 20 times”. In addition, in the series “physchem”, the lipophilic/hydrophilic character result is recorded as “lipophilic”; the logD – broadly, the decadic logarithm of the distribution of all forms, ionised or not, between an organic phase and buffer at a given pH – at 1 h is 2.29. For the same molecule, in series [4] (DMF), the Half-life time was 16.2 min and the k is 0.714 ± 0.007 10^3 s^-1. Moreover, the “adduct degradation, times more slowly than the POBN--OOH and PBN--OOH adducts” value in series [4] is on record as “approximately three”. In addition, in series [4] (pyridine), the Half-life time was found to be 21.05 min and the k is recorded as 0.549 ± 0.003 10^3 s^-1.
`CCOP(=O)(OCC)C(C)(C)[N+]([O-])=Cc1ccc(Cl)cc1` [Example 4, Diethyl 1-[[N-(4-chlorophenyl)formylene]-N-oxyamino]-1-methylethylphosphonate]: in “physchem”, the lipophilic/hydrophilic character result was “hydrophilic” and the logD at 1 h is -0.745. In addition, in series [4] (DMF), the Half-life time came to 15.2 min. Besides, in series [4], the “adduct degradation, times more slowly than the POBN--OOH and PBN--OOH adducts” value was “approximately three”. For the same molecule, in series [4] (pyridine), the Half-life time was 20.17 min and the k is 0.573 ± 0.001 10^3 s^-1.
As to `CC(C)(C)[N+]([O-])=Cc1ccccc1` [PBN, α-phenyl-tert-butylnitrone, reference compound], in series [5], the “reversal of the harmful effects of oxygen-containing free radicals” value is given as “particularly effective”. The “EPR detection of trapping adduct” value in series [2] and in series [3] was “No signal could be detected” throughout. Moreover, the “detection of the radical O2^.-” value in series [3] (EPR spin trapping) is given as “cannot be carried out”. Moreover, the Half-life time in series [4] (DMF) stood at 4.18 min; in series [4] (pyridine) it was 4.42 min.
Regarding `CC(C)(C)[N+]([O-])=Cc1cc[n+]([O-])cc1` [POBN, α-(1-oxydopyridin-1-ium-4-yl)-N-tert-butylnitrone, reference compound], the figures for the Half-life time in series [1], in series [4] (DMF) and in series [4] (pyridine) were 0.317 min, 5.05 min and 5.23 min, respectively. In series [1], the “order” value is “first order”.
